Entries after “also recorded” stand apart in the source; their conditions may differ.
Assays:
H295R cells [1] = experiment: Cortisol secretion (indirect ELISA); type: cell-based; conditions: cortisol in medium, 4 h or time course
Experimental: Cortisol secretion was measured by replacing the culture medium with fresh medium containing the indicated compounds. The medium was collected at the indicated times. The cortisol concentration in the medium was measured using indirect ELISA (Arbor Assays).
After 48 h, the medium was removed and replaced with 50 μl of fresh medium. After the indicated incubation time, aliquots of the supernatant ranging from 0.5 to 10 μl were diluted in 50 μl of medium were used to measure the amount of cortisol secreted. Cortisol detection and quantification were performed by indirect ELISA according to the manufacturer's protocol (Arbor Assays #K003).

ABCG1 = experiment: Transcript measurement by qPCR in H295R cells; type: cell-based; conditions: 4 h, hydrochloride
Experimental: (§1) mRNA was isolated (Qiagen), and was reverse transcribed using the Transcriptor First Strand cDNA synthesis kit (Roche). The relative amounts of cDNAs corresponding to the indicated transcripts were quantified using qPCR assays with specific primers (Table 2).
(§2) H295R cells were seeded in 6-well tissue culture plates (Corning #3506) at a density of 5 X105 per well. After 48 h, the compound(s) indicated were added, and the cells were cultured for the indicated time. The cells were harvested in 1.35 ml culture medium with trypsin. The cells were collected by centrifugation and lysed in 350 μl of RLT buffer (Qiagen) with β-mercaptoethanol. mRNA extraction and DNase treatment were performed according to the manufacturer's protocol (Qiagen). All RNA samples had 260/280 ratios greater than 1.5. The same amount of RNA ranging from 0.1 to 0.5 μg was used for reverse transcription using the Roche Transcriptor First Strand cDNA synthesis kit (Roche #04897030001) using the manufacturer's protocol. SYBR Green I-based real-time qPCR assays were performed using a Roche LightCycler480 instrument. The levels of transcripts in different samples were normalized by the levels of RPL9 transcripts.

CHOP = experiment: Transcript measurement by qPCR in H295R cells; type: cell-based; conditions: 4 h
Experimental: as §1, §2

ABCA1 = experiment: Transcript measurement by qPCR in H295R cells; type: cell-based; conditions: 4 h, hydrochloride
Experimental: as §1, §2

H295R cells [2] = experiment: Cholesterol efflux into serum-free medium with apoA1; type: cell-based; conditions: serum-free medium containing apoA-I, 4 h
Experimental: Cholesterol efflux was measured by replacing the culture medium with serum-free medium supplemented with 5 μg/ml apoA1 (Sigma) and the indicated compounds. After the indicated time, the serum-free medium was collected, and the cholesterol concentration was measured using the fluorometric enzyme-linked assay (Cayman Chemical).
After 48 h, the medium was removed and replaced with 50 μl serum-free medium supplemented with 5 μg/mL apoA1. After the indicated time, the supernatant containing the effluxed cholesterol, was transferred to a new 96-well plate. A cholesterol detection reagent (Cayman Chemical) consisting of cholesterol assay buffer, cholesterol assay detector (10-acetyl-3,7-dihydroxyphenoxazine [ADHP]), horseradish peroxidase, cholesterol oxidase, and cholesterol esterase was added, and the reactions were incubated for 30 min at 37 C. The fluorescence intensities were measured using ex. […] 590 nm. The cholesterol concentrations were calculated by interpolation between the values produced by cholesterol standards that were analyzed in parallel.

adrenal cortex = conditions: in vivo; cited from earlier work
H295R cells [3] = experiment: Cellular ATP level (CellTiter-Glo); conditions: for ATP level, compound alone: serum-containing medium;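 as to all read-outs here: ATP quantified by luminescence after lysing the cells in CellTiter-Glo reagent, with compound exposure at 37 °C under 5% CO2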
BD140C cells [4] = experiment: Cellular ATP level (CellTiter-Glo); type: cell-based
Experimental: The ATP levels of cells were measured by lysis in CellTiter-Glo reagent (Promega), and measurement of the luminescence.
After 48 h, 20-80 μl of medium was removed from each well and replaced with 20 μl of each compound diluted to 6× of the final concentration in the culture medium to produce a final volume of 120 μl. The cells were incubated at 37 C in 5% CO2 atmosphere for a time ranging from 15 min to 24 h. The medium was removed and immediately replaced with 50 μl of CellTiter-Glo luminescence cell viability assay reagent (Promega). The cells were lysed by agitation at room temperature for 20 min in the dark. The luminescence was measured using a SpectraMax M5 microplate reader (Molecular Devices) with a 0.5 s acquisition time. The luminescence (RLU) values for control cells ranged from 5000 to 20000 RLU in all experiments, and were scaled by a factor of 0.001 to plot all graphs.

H295R cells [5] = experiment: Caspase 3/7 activity (Apo-ONE); type: cell-based; conditions: for caspase 3/7 activity, compound alone: serum-containing medium; for caspase 3/7 activity with combinations of ABC transporter inhibitors: serum-free, 50 μM each glibenclamide, benzamil, zosuquidar, 10 μM PD129337, 4 mM MβCD
Experimental: (§3) The samples were incubated for 18 h at room temperature in the dark. The fluorescence was measured using a SpectraMax M5 microplate reader with a 0.5 s acquisition time.

BD140C cells [6] = experiment: Caspase 3/7 activity (Apo-ONE); type: cell-based
Experimental: as §3

H295R cells [7] = experiment: Visualization of cholesterol levels by filipin III binding; type: cell-based; conditions: for cholesterol level with combinations of ABC transporter inhibitors: serum-free, 50 μM each glibenclamide, benzamil, zosuquidar, 10 μM PD129337, 4 mM MβCD
Experimental: (§4) The cells were seeded in 96-well ibiTreat μ-Plates and allowed to adhere for 48 h prior to the start of each experiment. Cholesterol was detected in fixed cells by incubating with 100 μg/ml filipin III at 37 C for 2 h. […] Images were captured using either a 4× or a 60× objective. Cholesterol esterification was visualized by culturing the cells with 1 μM NBD-cholesterol for 2 h following incubation with the indicated compounds. […] Images were captured using either a 20× or a 60× objective.
(§5) The medium was removed and immediately replaced with 100 μl of 4% paraformaldehyde and the cells were fixed at room temperature for 20 min. The cells were washed twice with 200 μl PBS. […] The fixed cells were incubated with filipin III at 37 C in the dark for 2 h.

BD140C cells [8] = experiment: as above; type: cell-based; conditions: 4 h
Experimental: as §4, §5

H295R cells [9] = experiment: Visualization of NBD-cholesterol esterification; type: cell-based; conditions: compound 2 h then 2 h with NBD-cholesterol, hydrochloride
Experimental: (§6) The cells were seeded in 96-well ibiTreat μ-Plates and allowed to adhere for 48 h prior to the start of each experiment. Cholesterol was detected in fixed cells by incubating with 100 μg/ml filipin III at 37 C for 2 h. The bound filipin III was imaged by fluorescence microscopy using 377/11 nm excitation and 447/60 nm emission wavelengths. Images were captured using either a 4× or a 60× objective. Cholesterol esterification was visualized by culturing the cells with 1 μM NBD-cholesterol for 2 h following incubation with the indicated compounds. NBD-cholesterol esters were imaged by fluorescence microscopy using 485/20 nm excitation wavelengths. Images were captured using either a 20× or a 60× objective.
(§7) The cells were seeded in 96-well ibiTreat μ-Plates (Ibidi) in 100 μl at a density of 50,000 cells per well. […] 5 μl of NBD-cholesterol was added to each well to produce a final concentration of 1 μM. When NBD-cholesterol is esterified and localized to cytoplasmic lipid droplets, it produces bright fluorescent foci in the cell. The inhibition of ACAT activity prevents fluorescent focus formation by NBD-cholesterol (see, e.g., Lada, et al., 2004 J Lipid Res, 45, 378-86). After 1.5 h, 5 μl of Hoechst 33342 was added to each well to produce a final concentration of 3 μg/ml. After 30 min, the medium was replaced with fresh medium. NBD-cholesterol esterification was visualized by fluorescence microscopy using either 485/20 nm (NBD) or 387/11 nm (Hoechst) excitation wavelengths and images were captured using either a 60× oil objective or a 20× objective.

BD140C cells [10] = experiment: Visualization of NBD-cholesterol esterification; type: cell-based; conditions: compound 2 h then 2 h with NBD-cholesterol
Experimental: as §6, §7

ACAT = conditions: cited from earlier work
H295R cells [11] = experiment: Cholesterol crystallization and extracellular cholesterol associated with cells; type: cell-based; conditions: compound in combination with ATR-101
Experimental: To quantify cholesterol crystallization, experiments were conducted that measured the total extracellular cholesterol that was associated with the cells. After culturing cells with the indicated compounds, the culture medium was removed. Medium lacking cholesterol was added to the cells, and the extracellular cholesterol that was released into the wash medium was collected after 30 seconds. To establish if the cholesterol that was released from the cells was exported by ABCA1, the wash step was performed in parallel using media with and without 50 μM glibenclamide, which inhibits ABCA1 activity. The total amount of cell-associated cholesterol that was released into the wash medium was measured using a fluorometric enzyme-linked assay (Cayman Chemical). Cholesterol esters were hydrolyzed using cholesterol esterase. Cholesterol was oxidized by cholesterol oxidase, producing hydrogen peroxide. The hydrogen peroxide was reacted with 10-acetyl-3,7-dihydroxyphenoxazine (ADHP) in the presence of horseradish peroxidase to produce resorufin. Resorufin fluorescence was measured using 555 nm exitation and 590 nm emission wavelengths in a SpectraMax M5 microplate reader (Molecular Devices).
The medium was removed and replaced with 50 μl serum-free medium supplemented with 5 μg/mL apo-AI (without or with 50 μM glyburide to detect ABCA1 transporter-dependent efflux) for either 30 sec or 1 h at 37 C in 5% CO2 atmosphere. After the indicated time, the supernatant, was transferred to a new 96-well plate and a fluorometric-base cholesterol detection assay cocktail was added.

H295R cells [12] = experiment: Resazurin reducing potential; type: cell-based; conditions: 32 μM ATR-101 with 2 mM MβCD
Experimental: FIG. 4F: […] The cells were cultured with DMSO vehicle or 32 μM ATR-101 alone, or together with 2 mM MβCD. Resazurin fluorescence intensity was measured using a microplate reader at the indicated times at 37 C. The background signal of wells without resazurin was subtracted. […] DMSO control, *P<0.05).

H295R cells [13] = experiment: Cell morphology by phase contrast microscopy; type: cell-based; conditions: 30 h
Experimental: FIG. 4E: […] The cells were cultured with DMSO vehicle (upper images) or with 40 μM ATR-101 (lower images) alone (left images), or in combination with 1.5 mM MβCD (middle images), or in combination with 40 μM cholesterol (right images). Cell morphology was visualized by phase contrast microscopy using a 10× objective. The images are representative of 5 fields under each set of culture conditions. The scale bars denote 100 μm.

[14] = H295R cells, 24 h, hydrochloride
[15] = H295R cells cultured with the compound together with ATR-101, 4 h
[16] = H295R cells cultured with the compound together with ATR-101, 24 h

## CC(C)c1cccc(C(C)C)c1NC(=O)NCC1(c2ccccc2)CCCC1.Cl [PD129337, N-(2,6-bis(1-methylethyl)phenyl)-N′-((1-(phenyl)cyclopentyl)methyl)urea hydrochloride]
H295R cells [1]
  cortisol secretion, compound alone: did not reduce, but rather increased, cortisol secretion
ABCG1
  ABCG1 transcript level: inhibited; also recorded: equivalent effects
CHOP
  CHOP transcript level: activated
ABCA1
  ABCA1 transcript level: inhibited; also recorded: equivalent effects
H295R cells [2]
  cholesterol efflux, compound alone: no detectable effect on cholesterol efflux
Adrenal cortex
  adrenalytic activity: only ATR-101 has adrenalytic activity
H295R cells [3]; H295R cells, 4 h
  ATP level, compound alone: did not cause ATP depletion
H295R cells [3]; [14]
  ATP level, compound alone: did not reduce the ATP level; also recorded: no detectable effect
BD140C cells [4]; 4 h
  ATP level, compound alone: did not cause ATP depletion
BD140C cells [4]; 24 h, hydrochloride
  ATP level, compound alone: did not reduce the ATP level; also recorded: no detectable effect
H295R cells [5]; H295R cells, 4 h
  caspase 3/7 activity, compound alone: did not cause ATP depletion or caspase activation
H295R cells [5]; [14]
  caspase 3/7 activity, compound alone: did not reduce the ATP level or increase the caspase 3/7 activity; also recorded: no detectable effect
H295R cells [5]; H295R cells
  caspase 3/7 activity with combinations of ABC transporter inhibitors: did not enhance ATP depletion or caspase 3/7 activation
BD140C cells [6]; 4 h
  caspase 3/7 activity, compound alone: did not cause ATP depletion or caspase activation
BD140C cells [6]; 24 h, hydrochloride
  caspase 3/7 activity, compound alone: did not reduce the ATP level or increase the caspase 3/7 activity; also recorded: no detectable effect
H295R cells [7]; H295R cells, serum-containing medium, up to 4 h
  cholesterol level / accumulation (filipin III binding), compound alone: did not cause cholesterol accumulation
H295R cells [7]; H295R cells
  cholesterol level with combinations of ABC transporter inhibitors: further increased the cholesterol level
BD140C cells [8]
  cholesterol level / accumulation (filipin III binding), compound alone: did not cause cholesterol accumulation
H295R cells [9]
  NBD-cholesterol esterification and accumulation in lipid droplets: inhibited cholesterol esterification more efficiently than ATR-101; also recorded: inhibited NBD-cholesterol accumulation more effectively than ATR-101; also recorded: eliminated both the intense foci and the diffuse fluorescence
BD140C cells [10]
  NBD-cholesterol esterification and accumulation in lipid droplets: inhibited NBD-cholesterol esterification
ACAT
  ACAT activity: inhibit ACAT activity

## methyl-β-cyclodextrin [MβCD]
H295R cells [11]
  effect on cholesterol crystallization in cells cultured with ATR-101: did not produce crystals; also recorded: blocked
H295R cells [12]
  effect on the increase in resazurin fluorescence caused by ATR-101: not inhibited
H295R cells [3]; [15]
  effect on ATP depletion by ATR-101: prevented ATP depletion; also recorded: suppressed the depletion of ATP
H295R cells [3]; [16]
  effect on ATP depletion by ATR-101: prevented ATP depletion
H295R cells [3]; H295R cells, 2 mM MβCD
  effect on ATP depletion by ATR-101 in combination with ABC transporter inhibitors, substrates or U18666A: suppressed ATP depletion
H295R cells [3]; H295R cells, 4 h
  ATP level, compound alone: little effect
H295R cells [3]; H295R cells, 24 h
  ATP level, compound alone: little effect
H295R cells [3]; H295R cells, serum-free medium containing apoA-I, together with ATR-101
  effect on ATP depletion by ATR-101: suppressed ATP depletion
H295R cells [5]; [15]
  effect on caspase 3/7 activation by ATR-101: prevented ATP depletion and caspase activation; also recorded: suppressed
H295R cells [5]; [16]
  effect on caspase 3/7 activation by ATR-101: prevented ATP depletion and caspase activation
H295R cells [5]; H295R cells, 4 h
  caspase 3/7 activity, compound alone: little effect
H295R cells [5]; H295R cells, 24 h
  caspase 3/7 activity, compound alone: little effect
H295R cells [5]; H295R cells, serum-free medium, 100 μM ATR-101 with 4 mM MβCD
  effect on caspase activation by ATR-101: suppressed ATP depletion and caspase activation
H295R cells [5]; H295R cells
  caspase 3/7 activity with combinations of ABC transporter inhibitors: suppressed
H295R cells [7]; H295R cells cultured with the compound together with ATR-101, 4 h or 24 h
  effect on cholesterol accumulation caused by ATR-101: prevented cholesterol accumulation; also recorded: blocked the effects of ATR-101 on cholesterol accumulation; also recorded: did not have a higher level of filipin III binding to the plasma membrane
H295R cells [7]; H295R cells, serum-free medium containing apoA-I, 4 h
  cholesterol level (filipin III binding), compound alone: reduced the basal level of cholesterol
H295R cells [7]; H295R cells, serum-free medium, 100 μM ATR-101 with 4 mM MβCD, 4 h
  effect on cholesterol accumulation caused by ATR-101: suppressed the cholesterol accumulation
H295R cells [7]; H295R cells
  cholesterol level with combinations of ABC transporter inhibitors: reduced the cholesterol level
H295R cells [13]; 40 μM ATR-101 with 1.5 mM MβCD or 40 μM cholesterol
  effect on the changes in cell morphology caused by ATR-101: remained flat and adherent for at least 30 h; also recorded: prevented
H295R cells [13]; phase contrast
  cell morphology, compound alone: little effect

— patent US10512667B2, “Compositions and methods for treating conditions related to adrenocortical activity and/or excessive steroid production” (The Regents of the University of Michigan, priority 2017, dated 2019)
